Data from patent US20070225255A1, “Use of Mitochondrially Targeted Antioxidant in the Treatment of Liver Diseases and Epithelial Cancers” (priority 2004, published 2007).

Experiments:
[1] = fed to mice on a long term basis; cited from earlier work
DDC intoxicated mice [2] = assay: Long term (10 weeks) DDC intoxication, liver histology (cell ballooning, Mallory bodies); details: then 1 week without DDC with two injections of MitoQ
Protocol: Furthermore, single-label immunohistochemistry or double-label immunoflourescence microscopy is performed to detect MBs in tested animals.
In long term experiments by using mice intoxicated with DDC (for 8-10 weeks) the presence (or absence) of cell ballooning and/or Mallory bodies (MBs) in liver samples of treated animals is determined and compared to the control groups of animals.
In another set of experiments, after 10 weeks of DDC intoxication tested animals receive i.p. injections of MitoQ (1.25 mg/kg) twice within subsequent 7 days (day 1 and day 4 of the corresponding week), and are analysed by routine histology (standard haematoxylin/eosin staining according to Luna L. G., 1968, Manual of Histologic staining methods of the Armed Forces Institute of Pathology, 3rd edition. McGraw Hill, New York).

DDC intoxicated mice [3] = assay: Tocopherol quinone content in isolated mouse liver mitochondria; format: in vivo; details: DDC intoxicated mice with or without MitoQ
Protocol: In order to evaluate oxidative stress in control versus DDC-intoxicated mice with or without treatment by using antioxidants according to the invention, tocopherol quinone (TQ) content (Gille L. et al., 2004, Biochemic. Pharmacology, 68: 373-381) in isolated liver mitochondria (all tested animal groups prepared according to protocols in Example 3) is performed. The mouse liver mitochondria are prepared according to modified protocol from Staniek K. and Nohl H., 1999, Biochem. et Biophys. Acta, 1413: 70-80; Mela L. and Sietz S., 1979, Methods in Enzymology, Academic Press Inc.: 39-46, and TQ content is normalized to several parameters including protein and cytochrome concentrations and activity tests of complex I (NADH dehydrogenase), complex II (succinate dehydrogenase), complex III (cytochrome bcl) and complex IV (cytochrome oxidase).
A method for rat heart mitochondria (Staniek K. and Nohl H., 1999, Biochem. et Biophys. Acta, 1413: 70-80; Mela L. and Sietz S., 1979, Methods in Enzymology, Academic Press Inc.: 39-46) is adapted for mouse liver (ca. 10% weight compared to rat liver) isolated from various animal groups according to Example 3. The isolation of liver is performed at 4° C. […] The protein concentration is measured with the Biuret method (BSA as standard, at least […] protein needed for double determination) with expected yield of 3 to 6 mg. […]

[4] = test system: DDC- or GF intoxicated mice; assay: Toxic memory effect upon reintoxication with DDC or GF after recovery; format: in vivo, mouse; details: 10 weeks DDC or GF, 4 weeks recovery, reexposure 24 to 72 hours with simultaneous treatment
From the text: Mouse livers respond to DDC- or GF intoxication first with ballooning of hepatocytes and formation of a denser keratin IF network. After around 6 weeks of intoxication, ballooned hepatocytes show a reduced density of the keratin IF and early MBs can be observed as fine granules associated with the keratin IF network. Continuation of intoxication leads to the appearance of large MBs typically located in the perinuclear cytoplasmic region. […] Upon cessation of intoxication, MBs disappear within several weeks. At 4 weeks of recovery from intoxication, there are groups of hepatocytes devoid of cytoplasmic keratin filaments but still containing small remnants of MBs at the cell periphery in association with desmosomes. If such mice are reexposed to DDC or GF numerous MBs reappear within 24 to 72 hours (Stumptner C. et al., 2001, J. Hepatol., 34: 665-675). This enhanced formation of MBs upon reintoxication was interpreted—in analogy to allergic reactions—as a toxic memory effect.
In another set of experiments, 10 week-intoxication of mice with DDC or GF is followed by 4 weeks of recovery.

[5] = test system: fatty acid binding protein (FABP); assay: Western blot of fatty acid binding protein in DDC intoxicated mice; format: in vivo, mouse; details: MitoQ treatment of DDC intoxicated animals
Protocol: The protein expression level(s) of fatty acid binding protein (FABP) representing a sensitive marker for hepatocyte damage (Monbaliu D . et al., 2005, Transplant Proc. 37(1):413-416) is determined.

[6] = according to Jauslin M. L. et al., 2003, FASEB J.; cited from earlier work
DDC intoxicated mice [7] = assay: Short term (3 days) DDC intoxication, liver histology (H&E); details: DDC 3 days
Protocol: Liver samples prepared according to Example 1 are used for simple histologic staining such as with haematoxylin and eosin (Luna L. G., 1968, Manual of Histologic staining methods of the Armed Forces Institute of Pathology, 3rd edition. McGraw Hill, New York). Furthermore, single-label immunohistochemistry or double-label immunoflourescence microscopy is performed to detect MBs in tested animals.
In another set of experiments 3 to 12 mg/kg of MitoQ dissolved in 1% of DMSO in PBS is given intraperitoneally simultaneously to DDC intoxicated mice for 3 days and compared to control animals (positive control group represents DDC intoxicated mice whereas negative control represents non DDC intoxicated but vehicle injected animals).

Substance: MitoQ
- concentrations within the brain, heart, liver, and muscle [1]: potentially therapeutically effective concentrations
- safety of feeding [1]: fed safely
- accumulation of protoporphyrin in bile ducts (DDC intoxicated mice [2]): markedly reduced
- tocopherol quinone (TQ) levels in liver mitochondria (DDC intoxicated mice [3]): elevated TQ levels in DDC intoxicated mice when compared to controls and mice treated with MitoQ
- toxic memory effect (reappearance of MBs) [4]: reduced or abolished
- FABP protein expression [5]: reaches almost control mice FABP protein expression values
- EC50 [6]: 0.51 nM
- inflammatory cells around the portal vein (DDC intoxicated mice [7]; simultaneous MitoQ 6 mg/kg): Absence of inflammatory cells
- morphology of the hepatocytes (size and morphology of nuclei, structure of cytoplasm) (DDC intoxicated mice [7]; simultaneous MitoQ 6 mg/kg): normal
- liver architecture (strands of hepatocytes bordered by sinusoids) (DDC intoxicated mice [7]; simultaneous MitoQ in PBS/1% DMSO, 6 mg/kg): normal architecture again is visible
